Results on 3 molecules are retold here after patent US8703815B2, “Small molecules that covalently modify transthyretin” (The Scripps Research Institute, priority 2009, dated 2014).

“And” between values parts separate entries of the source, which are not always exact repeats. Identical values can stand only once. Like-named read-outs stand apart in the source and are kept apart here.

Data set [1] concerns IMR-32 cells. Briefly: Compound cytotoxicity to IMR-32 cells in the absence of WT-TTR. In kind it is cell-based, human. As for the experimental part:
Metabolically active cells reduce the resazurin redox dye to resorufin, a soluble fluorescent compound. [O'Brien et al., Eur. J. Biochem. 267:5421-5426 (2002)] The percentage of viable cells was calculated relative to cells treated with vehicle only (cell culture media and DMSO=100% viable).
(§1) The human neuroblastoma IMR-32 cell line (CCL-127 ATCC) was maintained in Opti-MEM® medium (Invitrogen), supplemented with 5% FBS, 1 mM Hepes buffer, 2 mM L-glutamine, 100 units/mL penicillin, 100 μg/mL streptomycin and 0.05 mg/mL CaCl2 (complete cell medium). Cells were seeded in black wall, clear bottom, tissue culture treated 96-well plates (Costar) at a density of 6,000 cells/well in complete cell medium and incubated overnight (about 18 hours) at 37° C.
(§2) Recombinant WT-TTR purified in the cold was used as the cytotoxic insult. The protein was buffer-exchanged in Hanks' Balanced Salt Solution (HBSS, Mediatech, Manassas, Va.) at 10° C. using a Centriprep® filter device (10 kDa MWCO, Millipore). Compounds (16 mM in DMSO) were diluted 1:1000 with WT-TTR (16 μM in HBSS, filter sterilized) or with HBSS only, vortexed and incubated for 18 hours at 37° C. WT-TTR (16 μM in HBSS) containing the same amount of DMSO was prepared in parallel and incubated under the same conditions.
(§3) The medium was removed from the cells and replaced immediately by the TTR/compound mixtures or HBSS previously diluted 1:1 in Opti-MEM® supplemented with 0.8 mg/mL BSA, 2 mM Hepes buffer, 4 mM L-glutamine, 200 units/mL penicillin, 200 μg/mL streptomycin and 0.1 mg/mL CaCl2. The cells were incubated 24 hours at 37° C. Cell viability was evaluated by a resazurin reduction assay.
(§4) Briefly, 10 μL of resazurin (500 μM, PBS) was added to each well and fluorescence quantified in a plate reader (Ex/Em 530/590 nm, Tecan Safire 2, Austria) after 1 hour of incubation at 37° C. Cell viability was calculated as percentage of fluorescence relative to cells treated only with vehicle (100% viability) after subtraction of blank fluorescence (wells without cells). Averages and standard errors from 2 independently performed studies, each performed at least in triplicate, were calculated using GraphPrism (San Diego, Calif., US).

Data set [2] deals with WT-TTR cytotoxicity in human IMR-32 neuroblastoma cells. The data set can be described thus: Inhibition of WT-TTR cytotoxicity in IMR-32 cells (resazurin reduction). It is filed as cell-based. The note with it: WT-TTR 8 μM, compounds 2, 4, 6 and 8 μM, 24 hours. As for the experimental part: Cell viability was measured after 24 hours by a resazurin reduction assay.
as §1, §2, §3, §4
Background: Resazurin is reduced to fluorescent resorufin, in cell work by metabolically active cells.

Data set [3] has as its target T1, V30M-TTR (Homo sapiens, UniProt P02766, V50M).
T1 construct: composed of 127-residue β-sheet-rich subunits; made in house
The data set can be described thus: Acid-mediated V30M-TTR fibril formation assay (turbidity at 400 nm). It is filed as biochemical. To be noted: pH 4.4, 72 hours, 37° C. As for the experimental part:
Compounds (5 μL of 1.44 mM solution in DMSO) were added to 495 μL of TTR (7.2 μM, in 10 mM sodium phosphate, 100 mM KCl, 1 mM EDTA, pH 7.0). The mixtures were vortexed and incubated (maintained) for 18 hours at 25° C. […] The solutions were vortexed to evenly distribute any precipitate, and turbidity was measured at 400 nm using a Hewlett Packard model 8453 UV-VIS Spectrophotometer.

Data set [4] deals with Huh-7 human liver (hepatoma) cells. Briefly: Labeling of endogenous TTR in Huh-7 cells. To be noted: A2 10 μM, 30 minutes. In kind it is cell-based. The text has this:
(§5) The confocal fluorescence observations are consistent with substantial evidence that the liver secretes the vast majority, if not all, of the TTR into the human bloodstream [Felding et al., Biochimica et Biophysica Acta 1982, 716, 446-9]. That TTR could be visualized in the secretory pathway addresses the sensitivity of A2-derived TTR fluorescent conjugate-based detection [Sekijima et al., Cell 2005, 121, 73-85].
(§6) Huh-7 cells or Gaucher's patient-derived fibroblasts (Coriell Cell Repositories, GM08760) were maintained in DMEM containing 10% FBS at 37° C. under 5% CO2. The cells were plated the day before compound treatment and imaging. Cells were washed twice with PBS and then treated with A2 (final concentration: 10 μM) for 30 minutes at 37° C. in a CO2 incubator. After two washes, cells were fixed at 25° C. for 15 minutes with 3.7% paraformaldehyde (w/v) in PBS and microscopic images were acquired as described above.

The target of data set [5] is T2, WT-TTR (Homo sapiens, UniProt P02766).
T2 construct: composed of 127-residue β-sheet-rich subunits; made in house; host or cells: E. coli
The data set can be described thus: Kinetics of the A2-TTR conjugation reaction (fluorescence). It is filed as binding. To be noted: A2 6 μM. As for the experimental part: Because the one-chain, one-binding-site TTR tag being created is envisioned to be useful for doing pulse-chase studies in the secretory pathway of eukaryotic cells, the kinetics of WT-TTR modification by A2 in concentrated cell lysate was investigated. […] We added WT-TTR at a final concentration of 2 μM (tetramer) to the HeLa cell lysate (2 μg/μL total protein concentration) to which A2 (6 μM) was added. At 37° C., the conjugate formed with a t50 of 18 minutes, within experimental error of the t50 (19 minutes) of TTR (2 μM) conjugate formation with A2 (6 μM) in phosphate buffer (pH 7).
The covalent TTR modifier A2 (1 μL of 0.6 mM solution in DMSO, final concentration: 6 μM) was added to 90 μL of HeLa cell lysate (final protein concentration: 2 μg/μL) and 10 μL of WT-TTR (20 μM in pH 7.0 phosphate buffer, final concentration: 2 μM). The time-dependent fluorescence change of the conjugate derived from A2 was monitored utilizing a microplate spectrophotometer reader (Gemini SpectraMax®, Molecular Devices, Sunnyvale, Calif.) for 3 hours at 37° C. The fluorescence (λex=328 nm and λem=430 nm) was measured from the bottom of the plate without shaking.

Data set [6] has as its system human fibroblasts. The data set can be described thus: A2 treatment of human fibroblasts (no TTR). The note with it: A2 10 μM, 30 minutes. It is filed as cell-based.
Text: as §5, §6

Data set [7] concerns the target T2, WT-TTR. The data set can be described thus: Selectivity of A2 TTR conjugation in HeLa cell lysate (RP-HPLC, LC-MS). It is filed as binding. The note with it: WT-TTR 5 μM, A2 15 μM, maximum of 50%. How it is done:
The ability of A2 to form a chemoselective amide bond with the K15 residue of TTR in cell lysate was assessed by RP-HPLC and LC-MS analysis. […] Immunoisolation of TTR affords the expected mass resulting from conjugate formation (14,185 m/z [M+H] for benzoylation by A2).

`Cc1cc(/C=C/c2cccc(C(=O)Sc3ccccc3)c2)cc(C)c1O` [Compound 2, (E)-S-phenyl 3-(4-hydroxy-3,5-dimethylstyryl)benzothioate]: in data set [1], the “cytotoxicity to IMR-32 cells in the absence of WT-TTR” value is “None of these compounds were cytotoxic to IMR-32 cells”. Moreover, in data set [2], the “inhibition of WT-TTR cytotoxicity to IMR-32 cells (in words)” value is “clearly and dose-dependently inhibits IMR-32 cytotoxicity”. In addition, the “% Fibril Formation 7.2 μM (V30M-TTR)” value in data set [3] (compound 7.2 μM) was 3%. Also, the “% Fibril Formation […] (V30M-TTR)” value in data set [3] (compound […]) is 34%.
Consider `Cc1cc(/C=C/c2cccc(C(=O)Oc3ccc(F)cc3)c2)cc(C)c1O` [Compound 4, (E)-4-fluorophenyl 3-(4-hydroxy-3,5-dimethylstyryl)benzoate], for which, in data set [1] (human, IMR-32 neuroblastoma cells, 24 h, 8 µM), the “cytotoxicity to IMR-32 cells in the absence of WT-TTR” value is “None of these compounds were cytotoxic to IMR-32 cells”. The “inhibition of WT-TTR cytotoxicity to IMR-32 cells (in words)” value in data set [2] is “clearly and dose-dependently inhibits IMR-32 cytotoxicity”.
With `Cc1cc(/C=C/c2cc(C(=O)Sc3ccc(F)cc3)cc(N(C)C)c2)cc(C)c1O` [Compound A2, (E)-S-4-fluorophenyl 3-(dimethylamino)-5-(4-hydroxy-3,5-dimethylstyryl)-benzothioate], in data set [4], the “fluorescence in Huh-7 cells” value is on record as “strong fluorescence”. Further, the “t50 of conjugate formation in phosphate buffer (pH 7)” value in data set [5] (TTR 2 μM) was determined as 19 minutes. Further, in data set [5] (WT-TTR 2 μM, lysate 2 μg/μL, 37° C.), the “t50 of conjugate formation in HeLa cell lysate” value was 18 min and 20 min. The “fluorescence in human fibroblasts” value in data set [6] is “no significant fluorescence”. In data set [7], the “% of TTR subunits modified in HeLa cell lysate” value is recorded as 49%.
